{
  "source": "the SangsterLogP compilation",
  "data": [
    {"experiment": "method code SF-AS/HPLC, from DOI: 10.1039/a908863f", "values": [
      {"compound": "C=CC(=O)OC(C)COc1ccc(C(C)(C)c2ccc(OCC(C)OC(=O)C=C)cc2)cc1", "note": "(stereo not drawn)", "logP": 6.1},
      {"compound": "C=CC(=O)Oc1ccccc1", "logP": 1.94},
      {"compound": "C=CC(=O)OCCOCCOCCOC(=O)C=C", "logP": 0.65},
      {"compound": "C=CC(=O)OCCCOC(=O)C=C", "logP": 0.87},
      {"compound": "C=CC(=O)OCCCCCCCCCC", "logP": 5.46},
      {"compound": "C=CC(=O)OCCOCCOC(=O)C=C", "logP": 0.79},
      {"compound": "C=CC(=O)OCC(CC)(COC(=O)C=C)COC(=O)C=C", "logP": 2.75},
      {"compound": "C=CC(=O)OCCCCCCOC(=O)C=C", "logP": 3.08},
      {"compound": "C=CC(=O)OCCOCCO", "logP": -0.3},
      {"compound": "C=CC(=O)OCCOCCOCCOCCOC(=O)C=C", "logP": 0.47},
      {"compound": "C=CC(=O)OCC(COC(=O)C=C)(COC(=O)C=C)COC(=O)C=C", "logP": 2.23},
      {"compound": "C=CC(=O)OCCCCCCCCCCCCCCCCCC", "logP": 7.1},
      {"compound": "C=CC(=O)OCC(C)(C)COC(=O)C=C", "logP": 2.5}
    ]}
  ]
}
